# Test results published in US9609868B2, “Alkoximino-substituted anthranilic acid diamides as pesticides” (BAYER CROPSCIENCE AKTIENGESELLSCHAFT, priority 2013, dated 2017).
# Columns and labels:
# Spodoptera frugiperda = Spodoptera frugiperda - spray test (SPODFR); assay type: in vivo; details: application rate 100 g/ha, maize leaf disks
# Description: Spodoptera frugiperda—Spray Test (SPODFR)
# (§1) Solvent: 78.0 parts by weight of acetone • • 1.5 parts by weight of dimethylformamide
# (§2) Emulsifier: 0.5 parts by weight of alkylaryl polyglycol ether
# (§3) To produce a suitable active compound preparation, 1 part by weight of active compound is mixed with the stated amounts of solvent and emulsifier, and the concentrate is diluted with emulsifier-containing water to the desired concentration.
# Leaf disks of maize (Zea mays) are sprayed with an active compound preparation of the desired concentration and, after drying, populated with caterpillars of the armyworm (Spodoptera frugiperda).
# After the desired period of time, the efficacy in % is determined. 100% means that all the caterpillars have been killed; 0% means that no caterpillars have been killed.
# Boophilus microplus = Boophilus microplus - injection test (BOOPMI Inj); assay type: in vivo; details: application rate 20 μg/animal, injection into engorged adult female cattle ticks
# Description: Boophilus microplus—Injection Test (BOOPMI Inj)
# (§4) Solvent: dimethyl sulfoxide
# To produce a suitable preparation of active compound, 10 mg of active compound are mixed with 0.5 ml of solvent and the concentrate is diluted with solvent to the desired concentration.
# 1 μl of the active compound solution is injected into the abdomen of 5 engorged adult female cattle ticks (Boophilus microplus). The animals are transferred into dishes and kept in a climate-controlled room.
# The activity is assessed after the desired time by laying of fertile eggs. Eggs which are not visibly fertile are stored in a climate-controlled cabinet until the larvae hatch after about 42 days. An efficacy of 100% means that none of the ticks has laid any fertile eggs; 0% means that all the eggs are fertile.
# Phaedon cochleariae = Phaedon cochleariae - spray test (PHAECO); assay type: in vivo; details: application rate 100 g/ha, Chinese cabbage leaf disks
# Description: Phaedon cochleariae—Spray Test (PHAECO)
# as §1, §2, §3
# After the desired period of time, the efficacy in % is determined. 100% means that all the beetle larvae have been killed; 0% means that no beetle larvae have been killed.
# Lucilia cuprina = Lucilia cuprina test (LUCICU); assay type: in vivo; details: application rate 100 ppm
# Description: Lucilia cuprina-Test (LUCICU)
# as §4
# To produce a suitable preparation of active compound, 10 mg of active compound are mixed with 0.5 ml of dimethyl sulfoxide, and the concentrate is diluted with water to the desired concentration.
# About 20 L1 larvae of the Australian sheep blowfly (Lucilia cuprina) are transferred into a test vessel containing minced horsemeat and the active compound preparation of the desired concentration.
# After the desired time, the kill in % is determined. 100% means that all the larvae have been killed; 0% means that no larvae have been killed.
# [1] = log P by HPLC on reversed-phase column (C18), EEC directive 79/831 Annex V.A8; assay type: physicochemical; details: HPLC reversed-phase C18, 43° C., data refer to the E isomer
# Description: The log P values reported in the tables and Preparation Examples above were determined in accordance with EEC directive 79/831 Annex V.A8 by HPLC (High Performance Liquid Chromatography) using a reversed-phase column (C18). Temperature 43° C. The calibration is effected with unbranched alkan-2-ones (having 3 to 16 carbon atoms), for which the log P values are known.
# Myzus persicae = Myzus persicae - spray test (MYZUPE); assay type: in vivo; details: application rate 100 g/ha, Chinese cabbage leaf disks
# Description: Myzus persicae—Spray Test (MYZUPE)
# Solvent: 78 parts by weight of acetone • • 1.5 parts by weight of dimethylformamide
# as §2, §3
# Disks of Chinese cabbage leaves (Brassica pekinensis) infested by all stages of the green peach aphid (Myzus persicae) are sprayed with an active compound preparation of the desired concentration.
# After the desired period of time, the efficacy in % is determined. 100% means that all the aphids have been killed; 0% means that none of the aphids have been killed.
Compound,efficacy (caterpillars killed) (Spodoptera frugiperda) [%],efficacy (no fertile eggs laid) (Boophilus microplus) [%],efficacy (beetle larvae killed) (Phaedon cochleariae) [%],efficacy (kill of L1 larvae) (Lucilia cuprina) [%],log p ([1]; Table A),efficacy (aphids killed) (Myzus persicae) [%],log p ([1]; Table C)
CON=Cc1cc(C)c(NC(=O)c2cc(C(F)(F)F)nn2-c2ncccc2Cl)c(C(=O)NNC(=O)OC)c1 [A-04],100,100,100,100,2.65,100,–
CON=Cc1cc(C)c(NC(=O)c2cc(C(F)(F)F)nn2-c2ncccc2Cl)c(C(=O)NNS(C)(=O)=O)c1 [A-23],100,–,100,–,2.63,100,–
CON=Cc1cc(C)c(NC(=O)c2cc(C(F)(F)F)nn2-c2ncccc2Cl)c(C(=O)NC(C)CSC)c1 (stereo not shown) [C-05],100,–,100,–,–,100,3.72
CON=Cc1cc(C)c(NC(=O)c2cc(OC(C)C)nn2-c2ncccc2Cl)c(C(=O)NC(C)C)c1 [C-07],100,–,100,–,–,90,3.29
CON=Cc1cc(C)c(NC(=O)c2cc(OC(C)C)nn2-c2ncccc2Cl)c(C(=O)NC(C)C2CC2)c1 (stereo not shown) [C-08],100,–,100,–,–,90,3.65
CON=Cc1cc(C)c(NC(=O)c2cc(OC(C)C)nn2-c2ncccc2Cl)c(C(=O)NC(C)(C)C)c1 [C-09],100,–,100,–,–,100,3.74
CCOc1cc(C(=O)Nc2c(C)cc(C=NOC)cc2C(=O)NC)n(-c2ncccc2Cl)n1 [C-10],100,–,100,–,–,100,2.48
CCOc1cc(C(=O)Nc2c(C)cc(C=NOC)cc2C(=O)NC(C)(C)C)n(-c2ncccc2Cl)n1 [C-11],100,–,100,–,–,100,3.42
CON=Cc1cc(C)c(NC(=O)c2cc(OCC(F)F)nn2-c2ncccc2Cl)c(C(=O)NC2CC2)c1 [C-17],100,–,100,–,–,90,2.91
CNC(=O)c1cc(C=NOC)cc(C)c1NC(=O)c1cc(OCC(F)F)nn1-c1ncccc1Cl [C-20],100,100,83,100,–,90,2.57
CON=Cc1cc(C)c(NC(=O)c2cc(OCC(F)F)nn2-c2ncccc2Cl)c(C(=O)NC(C)(C)C)c1 [C-21],100,–,83,–,–,100,3.43
CNC(=O)c1cc(C=NOC)cc(C)c1NC(=O)c1cc(OC)nn1-c1ncccc1Cl [C-22],100,–,100,–,–,100,2.15
CON=Cc1cc(C)c(NC(=O)c2cc(OC)nn2-c2ncccc2Cl)c(C(=O)NC2CC2)c1 [C-23],100,–,100,–,–,100,2.40
CON=Cc1cc(C)c(NC(=O)c2cc(OC)nn2-c2ncccc2Cl)c(C(=O)NC(C)C2CC2)c1 (stereo not shown) [C-25],100,–,100,–,–,100,3.02
CON=Cc1cc(C)c(NC(=O)c2cc(OC)nn2-c2ncccc2Cl)c(C(=O)NC(C)(C)C)c1 [C-26],100,–,100,–,–,100,3.06
